Results as given in patent US9982005B2, “Macrolides and methods of their preparation and use” (President and Fellows of Harvard College, priority 2013, dated 2018).
Converted amounts (≈) assume the structure as drawn. Like-named read-outs stand apart in the source and are kept apart here.

Experiments:
[1] = ester bond
[2] = test system: SA101 S. aureus ATCC29213; assay: broth dilution MIC, S. aureus SA101; assay type: cell-based; conditions: Staphylococcus aureus, ATCC29213, SA101 S. aureus ATCC29213; read-out: MIC
Procedure, shortened: (§1)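 Following CLSI guidelines, each compound was serially diluted in broth against the bacterial strain and the MIC recorded. Azithromycin was included in parallel as a comparator macrolide.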

[3] = test system: SA183 S. aureus ermA positive msrA unknown; assay: broth dilution MIC, S. aureus SA183; assay type: cell-based; conditions: Staphylococcus aureus
Procedure, shortened: as §1

[4] = test system: SA418 S. aureus ermA negative msrA positive; assay: broth dilution MIC, S. aureus SA418; assay type: cell-based; conditions: Staphylococcus aureus
Procedure, shortened: as §1

[5] = test system: SA506 S. aureus ermA positive msrA unknown; assay: broth dilution MIC, S. aureus SA506; assay type: cell-based; conditions: Staphylococcus aureus
Procedure, shortened: as §1

[6] = test system: SA557 S. aureus ermA unknown msrA positive; assay: broth dilution MIC, S. aureus SA557; assay type: cell-based; conditions: Staphylococcus aureus; SA557 S. aureus ermA unknown msrA positive; read-out: MIC
Procedure, shortened: as §1

[7] = test system: SA1707 S. aureus ermA negative msrA positive; assay: broth dilution MIC, S. aureus SA1707; assay type: cell-based; conditions: Staphylococcus aureus
Procedure, shortened: as §1

[8] = test system: SA1708 S. aureus ermA positive msrA negative; assay: broth dilution MIC, S. aureus SA1708; assay type: cell-based; conditions: Staphylococcus aureus
Procedure, shortened: as §1

[9] = test system: Spn 106 S. pneumonia ATCC49619; assay: broth dilution MIC, S. pneumoniae Spn 106; assay type: cell-based; conditions: Streptococcus pneumoniae
Procedure, shortened: as §1

[10] = test system: Spn160 S. pneumoniae ermB unknown mefA positive; assay: broth dilution MIC, S. pneumoniae Spn160; assay type: cell-based; conditions: Streptococcus pneumoniae; Spn160 S. pneumoniae ermB unknown mefA positive; read-out: MIC
Procedure, shortened: as §1

[11] = test system: Spn1509 S. pneumoniae ermB positive mefA negative; assay: broth dilution MIC, S. pneumoniae Spn1509; assay type: cell-based; conditions: Streptococcus pneumoniae
Procedure, shortened: as §1

[12] = test system: Spn1533 S. pneumoniae ermB positive mefA positive; assay: broth dilution MIC, S. pneumoniae Spn1533; assay type: cell-based; conditions: Streptococcus pneumoniae
Procedure, shortened: as §1

[13] = test system: Spn1537 S. pneumoniae ermB positive mefA positive; assay: broth dilution MIC, S. pneumoniae Spn1537; assay type: cell-based; conditions: Streptococcus pneumoniae
Procedure, shortened: as §1

[14] = test system: Spn1427 S. pneumoniae ermB positive mefA negative; assay: broth dilution MIC, S. pneumoniae Spn1427; assay type: cell-based; conditions: Streptococcus pneumoniae
Procedure, shortened: as §1

[15] = test system: HI175 H. influenzae ATCC49247; assay: broth dilution MIC, H. influenzae HI175; assay type: cell-based; conditions: Haemophilus influenzae
Procedure, shortened: as §1

[16] = test system: HI281 H. influenzae; assay: broth dilution MIC, H. influenzae HI281; assay type: cell-based; conditions: Haemophilus influenzae
Procedure, shortened: as §1

[17] = test system: EC107 E. coli ATCC25922; assay: broth dilution MIC, E. coli EC107; assay type: cell-based; conditions: Escherichia coli, read-out: MIC
Procedure, shortened: as §1

[18] = test system: EC878 E. coli tolC; assay: broth dilution MIC, E. coli EC878; assay type: cell-based; conditions: Escherichia coli
Procedure, shortened: as §1

[19] = test system: EC882 E. coli imp; assay: broth dilution MIC, E. coli EC882; assay type: cell-based; conditions: Escherichia coli
Procedure, shortened: as §1

[20] = test system: BS1723 B. subtilis BS168 WT wild type; assay: broth dilution MIC, B. subtilis BS1723; assay type: cell-based; conditions: Bacillus subtilis, BS1723 B. subtilis BS168 WT wild type; read-out: MIC
Procedure, shortened: as §1

[21] = test system: BS1725 B. subtilis ermC; assay: broth dilution MIC, B. subtilis BS1725; assay type: cell-based; conditions: Bacillus subtilis
Procedure, shortened: as §1

[22] = test system: E. coli strains; assay: MIC against E. coli strains (Table M7); assay type: cell-based; conditions: Escherichia coli, ATCC25922, E. coli ATCC 25922
Procedure, shortened: as §1

[23] = test system: S. aureus strains; assay: MIC against S. aureus strains (Table M7); assay type: cell-based; conditions: for MIC: Staphylococcus aureus
Procedure, shortened: as §1

[24] = test system: S. pneumoniae strains; assay: MIC against S. pneumoniae strains (Tables M7, M8); assay type: cell-based; conditions: Streptococcus pneumoniae
From the text: CLSI standard procedures for broth dilution MIC determination were used. […] These genotypes can be constitutive or inducible.

[25] = test system: E. faecalis strains; assay: MIC against E. faecalis strains (Table M8); assay type: cell-based; conditions: for MIC: Enterococcus faecalis, E. faecalis 29212
[26] = test system: A. baumannii strains; assay: MIC against A. baumannii strains (Table M8); assay type: cell-based; conditions: Acinetobacter baumannii, BAA747, A. baumannii BAA747-1
[27] = test system: K. pneumoniae strains; assay: MIC against K. pneumoniae strains (Table M8); assay type: cell-based; conditions: Klebsiella pneumoniae, K. pneumoniae 10031
[28] = test system: H. influenzae strains; assay: MIC against H. influenzae strains (Table M8); assay type: cell-based; conditions: Haemophilus influenzae
Procedure, shortened: as §1

[29] = test system: S. aureus (Newman, clinical isolate); assay: MIC, S. aureus Newman; assay type: cell-based; conditions: Staphylococcus aureus, S. aureus (Neuman, clinical isolate), round 2
Procedure, shortened: as §1

[30] = test system: E. coli (MC4100); assay: MIC, E. coli MC4100; assay type: cell-based; conditions: Escherichia coli, round 2, read-out: MIC
Procedure, shortened: as §1

[31] = test system: panels of Gram-positive bacteria; conditions: fluorine atom at position C2; cited from earlier work
[32] = ATCC29213, S. aureus ATCC 29213, read-out: MIC S. aureus (ATCC 29213)
[33] = S. aureus 506, read-out: MIC S. aureus (506)
[34] = S. aureus 1708, read-out: MIC S. aureus (1708)
[35] = USA300, S. aureus USA300, read-out: MIC S. aureus (USA300)
[36] = S. pneumoniae 160, read-out: MIC S. pneumonae (160)
[37] = S. pneumoniae 1509, read-out: MIC S. pneumoniae (1509)
[38] = S. pneumoniae 1533, read-out: MIC S. pneumoniae (1533)
[39] = S. pneumoniae 1537, read-out: MIC S. pneumoniae (1537)
[40] = H. influenzae 49247, read-out: MIC H. influenzae (49247)
[41] = H. influenzae 49766, read-out: MIC H. influenzae (49766)

CC[C@H]1OC(=O)[C@H](C)C(=O)[C@H](C)[C@@H](O[C@@H]2OC(C)CC(N(C)C)C2OC(=O)OC)[C@](C)(OC)C[C@@H](C)CN[C@H](C)[C@H]2N(CCCCN=[N+]=[N-])C(=O)O[C@]12C (some centres unmarked)
ring closure, yield of all isomers ([1]; from CC[C@@H](O)[C@@]1(C)OC(=O)N(CCCCN=[N+]=[N-])[C@@H]1[C@@H](C)NC[C@H](C)C[C@@](C)(OC)[C@H](O[C@@H]1OC(C)CC(N(C)C)C1OC(=O)OC)[C@@H](C)C1=C(C)C(=O)OC(C)(C)O1, toluene, 3.97 mM, 111.0 °C, 40.0 h): 92%

CC[C@H]1OC(=O)C(C)(F)C(=O)[C@@H](C)[C@@H](O[C@@H]2OC(C)CC(N(C)C)C2O)[C@](C)(OC)C[C@@H](C)CN[C@H](C)[C@H]2N(CCCCn3cc(-c4cccc(N)c4)nn3)C(=O)O[C@]12C (some centres unmarked) [FSM-20720]
MIC [2]: 4 to 8 µg/mL (≈ 4.73 to 9.46 µM) | MIC [3]: > 32 µg/mL | MIC [4]: 8 µg/mL (≈ 9.46 µM) | MIC [5]: > 32 µg/mL | MIC [6]: 8 µg/mL (≈ 9.46 µM) | MIC [7]: 16 µg/mL (≈ 18.9 µM) | MIC [8]: 16 µg/mL (≈ 18.9 µM) | MIC ([9]; Spn 106 S. pneumonia ATCC49619, read-out: MIC): 0.125 µg/mL (≈ 0.148 µM) | MIC [10]: 0.5 µg/mL (≈ 0.591 µM) | MIC ([11]; Spn1509 S. pneumoniae ermB positive mefA negative, read-out: MIC): 2 µg/mL (≈ 2.36 µM) | MIC [12]: > 32 µg/mL | MIC [13]: > 32 µg/mL | MIC [14]: 8 µg/mL (≈ 9.46 µM) | MIC [15]: 4 µg/mL (≈ 4.73 µM) | MIC [16]: 32 µg/mL (≈ 37.8 µM) | MIC [17]: > 32 µg/mL | MIC [18]: 1 µg/mL (≈ 1.18 µM) | MIC [19]: 1 µg/mL (≈ 1.18 µM) | MIC [20]: 4 µg/mL (≈ 4.73 µM) | MIC ([21]; BS1725 B. subtilis ermC (+ery)): > 32 µg/mL | MIC [22]: > 32 µg/mL | MIC [23, 32]: 4 µg/mL (≈ 4.73 µM) | MIC [23, 33]: > 32 µg/mL | MIC [23, 34]: 8 µg/mL (≈ 9.46 µM) | MIC [23, 35]: 8 µg/mL (≈ 9.46 µM) | MIC [24, 36]: 0.5 µg/mL (≈ 0.591 µM) | MIC [24, 37]: 8 µg/mL (≈ 9.46 µM) | MIC [24, 38]: > 32 µg/mL | MIC [24, 39]: > 32 µg/mL | MIC ([24]; S. pneumoniae 49619, read-out: MIC S. pneumoniae (49619)): 1 µg/mL (≈ 1.18 µM) | MIC [25]: 2 µg/mL (≈ 2.36 µM) | MIC [26]: > 32 µg/mL | MIC [27]: 8 µg/mL (≈ 9.46 µM) | MIC [28, 40]: 8 µg/mL (≈ 9.46 µM) | MIC [28, 41]: 32 µg/mL (≈ 37.8 µM)

CC[C@H]1OC(=O)[C@H](C)[C@@H](O[C@H]2C[C@@](C)(OC)[C@@H](O)[C@H](C)O2)[C@H](C)[C@@H](O[C@@H]2O[C@H](C)C[C@H](N(C)C)[C@H]2O)[C@](C)(O)C[C@@H](C)CN(C)[C@H](C)[C@@H](O)[C@]1(C)O [Azithromycin, reference compound]
MIC [2]: 1 to 2 µg/mL (≈ 1.34 to 2.67 µM) | MIC [3]: > 32 µg/mL | MIC [4]: > 32 µg/mL | MIC [5]: > 32 µg/mL | MIC [6]: > 32 µg/mL | MIC [7]: > 32 µg/mL | MIC [8]: > 32 µg/mL | MIC ([9]; ATCC49619): 0.0625 µg/mL (≈ 0.0834 µM) | MIC [10]: 2 µg/mL (≈ 2.67 µM) | MIC [11]: > 32 µg/mL | MIC [12]: > 32 µg/mL | MIC [13]: > 32 µg/mL | MIC [14]: > 32 µg/mL | MIC [15]: 2 µg/mL (≈ 2.67 µM) | MIC [16]: 4 µg/mL (≈ 5.34 µM) | MIC [17]: 4 µg/mL (≈ 5.34 µM) | MIC [18]: 0.5 µg/mL (≈ 0.668 µM) | MIC [19]: 0.0625 µg/mL (≈ 0.0834 µM) | MIC [20]: 0.5 µg/mL (≈ 0.668 µM) | MIC ([21]; BS1725 B. subtilis ermC (+ery)): > 32 µg/mL | MIC ([21]; BS1725 B. subtilis ermC (−ery)): > 32 µg/mL | MIC [29]: 1 µg/mL (≈ 1.34 µM) | MIC [30]: 8 µg/mL (≈ 10.7 µM) | MIC [22]: 8 µg/mL (≈ 10.7 µM) | MIC S. aureus (ATCC 29213) ([23]; S. aureus ATCC 29213): 1 µg/mL (≈ 1.34 µM) | MIC [23, 32]: 2 µg/mL (≈ 2.67 µM) | MIC ([23]; S. aureus 183, read-out: MIC S. aureus (183)): > 32 µg/mL | MIC [23, 33]: > 32 µg/mL | MIC [23, 34]: > 32 µg/mL | MIC [23, 35]: > 32 µg/mL | MIC [24, 36]: 2 µg/mL (≈ 2.67 µM) | MIC [24, 37]: > 32 µg/mL | MIC [24, 38]: > 32 µg/mL | MIC [24, 39]: > 32 µg/mL | MIC E. faecalis (29212) [25]: 16 µg/mL (≈ 21.4 µM) | MIC [25]: 8 µg/mL (≈ 10.7 µM) | MIC [27]: 2 µg/mL (≈ 2.67 µM) | MIC [28, 40]: 0.25 µg/mL (≈ 0.334 µM) | MIC [28, 41]: 2 µg/mL (≈ 2.67 µM)

CC[C@H]1OC(=O)[C@@](C)(F)C(=O)[C@H](C)[C@@H](O[C@@H]2O[C@H](C)C[C@H](N(C)C)[C@H]2O)[C@](C)(OC)C[C@@H](C)C(=O)[C@H](C)[C@H]2N(CCCCn3cc(-c4cccc(N)c4)nn3)C(=O)O[C@]12C [solithromycin]
increase in activity versus the non-fluorinated molecule [31]: 4- to 16 fold

CC[C@H]1OC(=O)CC(=O)[C@H](C)[C@@H](O[C@@H]2OC(C)CC(N(C)C)C2OC(=O)OC)[C@](C)(OC)C[C@@H](C)CN[C@H](C)[C@H]2N(CCCCN=[N+]=[N-])C(=O)O[C@]12C (some centres unmarked)
ring closure, yield of all isomers ([1]; from CC[C@@H](O)[C@@]1(C)OC(=O)N(CCCCN=[N+]=[N-])[C@@H]1[C@@H](C)NC[C@H](C)C[C@@](C)(OC)[C@H](O[C@@H]1OC(C)CC(N(C)C)C1OC(=O)OC)[C@@H](C)C(=O)CC(=O)OC(C)(C)C, benzene, 9.08 mM, 80.0 °C, 12.0 h): 84%
